Results on 18 molecules are retold here after patent US8648086B2, “5,6-bicyclic heteroaryl-containing urea compounds as kinase inhibitors” (Ascepion Pharmaceuticals, Inc., priority 2009, dated 2014).

The target in one assay is T1, PDGFRβ (Homo sapiens, UniProt P09619).
T1 construct: expressed in transfected cells; host or cells: CHO cells, pcDNA3.1 plasmid
As to the kind of experiment: PDGFRβ cell-based assay (phospho-PDGFRβ ELISA, transfected CHO cells). To be noted: compound at 100 nM, read-out: % PDGFRβ kinase activity remains. How it is done:
A standard cell-based assay for PDGFRβ kinase activity can be used to test a compound of this invention and to identify PDGFRβ antagonists.
Specifically, a compound to be tested was first dissolved in DMSO to a concentration of 10 mM and stored at −20° C. The activity of PDGFRβ in cells depends on the phosphorylation level of its intracellular domain induced by the ligand. In order to express PDGFRβ in the cell, full length PDGFRβ sequence was cloned into PC-DNA3.1 vector. The plasmid was then transfected into CHO cells. After 48 hours following the transfection, the expression of PDGFRβ in transfected CHO cells was confirmed by regular western blotting.
To screen the compound of this invention, the ELISA kit (R&D Systems, Minneapolis, Minn., USA) was used. One day before the screening, CHO cells transfected with full length PDGFRβ plasmid were grown in DMEM medium without the presence of serum. On the day of screening, various concentrations of compounds (from 0.5 nM to 500 nM) were added into DMEM medium. Two hours later, 20% of FBS (Fetal Bovine Serum) was added into the medium to stimulate the expression of phosphor-PDGFRβ. Cell lysate from approximately 5×10^5 transfected CHO cells were reacted with anti-phosphor-PDGFRβ or anti-total PDGFRβ antibody in 96 well plates, in the presence of detection antibody, the phosphor-PDGFRβ or total PDGFRβ were detected with Streptavidin-HRP (R&D Systems), followed by chemiluminescent detection.
In general terms: An ELISA detects its analyte on a solid surface through an enzyme-linked reagent.

A further assay deals with T2, VEGFR2 (Homo sapiens, UniProt P35968).
T2 construct: expressed in transfected cells; host or cells: CHO cells, pcDNA3.1 plasmid
T2 sequence (P35968 20-1356, species assumed): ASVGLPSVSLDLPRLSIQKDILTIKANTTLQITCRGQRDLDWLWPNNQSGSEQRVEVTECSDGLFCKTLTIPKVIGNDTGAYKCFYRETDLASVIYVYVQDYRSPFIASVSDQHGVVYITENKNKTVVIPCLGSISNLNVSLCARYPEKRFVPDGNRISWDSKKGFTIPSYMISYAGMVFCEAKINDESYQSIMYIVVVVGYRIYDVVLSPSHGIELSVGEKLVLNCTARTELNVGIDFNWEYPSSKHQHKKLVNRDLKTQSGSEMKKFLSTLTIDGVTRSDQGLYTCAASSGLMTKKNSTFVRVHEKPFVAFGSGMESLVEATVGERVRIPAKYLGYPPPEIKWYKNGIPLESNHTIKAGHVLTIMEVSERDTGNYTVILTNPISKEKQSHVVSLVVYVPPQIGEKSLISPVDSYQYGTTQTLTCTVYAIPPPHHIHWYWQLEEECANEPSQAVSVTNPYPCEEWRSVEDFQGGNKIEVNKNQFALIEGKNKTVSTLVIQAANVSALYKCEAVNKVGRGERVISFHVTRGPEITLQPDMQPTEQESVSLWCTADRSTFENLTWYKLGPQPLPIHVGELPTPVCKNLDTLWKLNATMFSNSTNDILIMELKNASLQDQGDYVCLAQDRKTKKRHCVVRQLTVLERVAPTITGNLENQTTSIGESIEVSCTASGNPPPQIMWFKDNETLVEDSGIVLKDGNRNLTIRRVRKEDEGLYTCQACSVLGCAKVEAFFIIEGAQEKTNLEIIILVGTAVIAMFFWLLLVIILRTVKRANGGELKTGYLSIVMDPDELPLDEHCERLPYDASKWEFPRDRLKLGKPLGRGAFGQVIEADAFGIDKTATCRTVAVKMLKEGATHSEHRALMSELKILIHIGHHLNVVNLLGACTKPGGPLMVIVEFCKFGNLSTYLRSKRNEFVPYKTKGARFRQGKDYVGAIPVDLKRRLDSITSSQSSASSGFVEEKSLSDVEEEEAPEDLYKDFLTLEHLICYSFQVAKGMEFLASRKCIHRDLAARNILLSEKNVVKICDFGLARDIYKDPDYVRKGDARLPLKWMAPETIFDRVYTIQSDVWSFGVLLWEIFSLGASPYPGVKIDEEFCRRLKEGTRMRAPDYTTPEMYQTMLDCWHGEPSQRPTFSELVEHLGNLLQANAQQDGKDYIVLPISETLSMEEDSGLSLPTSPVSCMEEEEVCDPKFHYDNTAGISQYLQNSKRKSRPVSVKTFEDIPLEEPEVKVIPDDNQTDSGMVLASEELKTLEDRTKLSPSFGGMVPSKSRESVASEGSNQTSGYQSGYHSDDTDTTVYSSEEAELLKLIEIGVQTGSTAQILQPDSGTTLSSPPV
The assay can be described thus: VEGFR2 cell-based assay (phospho-VEGFR2 ELISA, transfected CHO cells). To be noted: compound at 100 nM, read-out: % VEGFR2 kinase activity remains. How it is done: A standard cell-based assay for VEGFR2 kinase activity can be used to test compounds of this invention and to identify VEGFR2 antagonists.
Specifically, a compound to be tested was first dissolved in DMSO to a concentration of 10 mM and stored at −20° C. The activity of VEGFR2 in cells depends on the phosphorylation level at its intracellular domain induced by the ligand. In order to express VEGFR2 in the cells, full length VEGFR2 sequence was cloned into PC-DNA3.1 vector, the plasmid was then transfected into CHO cells. After 48 hours, the expression of VEGFR2 in transfected CHO cells was confirmed by regular western blotting.
To screen the compounds of this invention, the ELISA kit (R&D Systems) was used. One day before the screening, CHO cells transfected with full length VEGFR2 plasmid were grown in DMEM medium without the presence of serum. On the day of screening, various concentrations of compounds (From 0.5 nM to 500 nM) were added into DMEM medium. Two hours later, 20% of FBS (Fetal Bovine Serum) was added into the medium to stimulate the production of phosphor-VEGFR2. Cell lysate from approximately 5×10^5 transfected CHO cells were reacted with anti-phosphor-VEGFR2 or anti-total VEGFR2 antibody in 96 well plates. In the presence of detection antibody, the phosphor-VEGFR2 or total VEGFR2 were detected with Streptavidin-HRP (R&D Systems) followed by chemiluminescence detection.

In a further assay the target is T3, c-Met (Homo sapiens, UniProt P08581).
T3 construct: endogenous in cells; host or cells: A549 cells
T3 sequence (P08581 25-1390): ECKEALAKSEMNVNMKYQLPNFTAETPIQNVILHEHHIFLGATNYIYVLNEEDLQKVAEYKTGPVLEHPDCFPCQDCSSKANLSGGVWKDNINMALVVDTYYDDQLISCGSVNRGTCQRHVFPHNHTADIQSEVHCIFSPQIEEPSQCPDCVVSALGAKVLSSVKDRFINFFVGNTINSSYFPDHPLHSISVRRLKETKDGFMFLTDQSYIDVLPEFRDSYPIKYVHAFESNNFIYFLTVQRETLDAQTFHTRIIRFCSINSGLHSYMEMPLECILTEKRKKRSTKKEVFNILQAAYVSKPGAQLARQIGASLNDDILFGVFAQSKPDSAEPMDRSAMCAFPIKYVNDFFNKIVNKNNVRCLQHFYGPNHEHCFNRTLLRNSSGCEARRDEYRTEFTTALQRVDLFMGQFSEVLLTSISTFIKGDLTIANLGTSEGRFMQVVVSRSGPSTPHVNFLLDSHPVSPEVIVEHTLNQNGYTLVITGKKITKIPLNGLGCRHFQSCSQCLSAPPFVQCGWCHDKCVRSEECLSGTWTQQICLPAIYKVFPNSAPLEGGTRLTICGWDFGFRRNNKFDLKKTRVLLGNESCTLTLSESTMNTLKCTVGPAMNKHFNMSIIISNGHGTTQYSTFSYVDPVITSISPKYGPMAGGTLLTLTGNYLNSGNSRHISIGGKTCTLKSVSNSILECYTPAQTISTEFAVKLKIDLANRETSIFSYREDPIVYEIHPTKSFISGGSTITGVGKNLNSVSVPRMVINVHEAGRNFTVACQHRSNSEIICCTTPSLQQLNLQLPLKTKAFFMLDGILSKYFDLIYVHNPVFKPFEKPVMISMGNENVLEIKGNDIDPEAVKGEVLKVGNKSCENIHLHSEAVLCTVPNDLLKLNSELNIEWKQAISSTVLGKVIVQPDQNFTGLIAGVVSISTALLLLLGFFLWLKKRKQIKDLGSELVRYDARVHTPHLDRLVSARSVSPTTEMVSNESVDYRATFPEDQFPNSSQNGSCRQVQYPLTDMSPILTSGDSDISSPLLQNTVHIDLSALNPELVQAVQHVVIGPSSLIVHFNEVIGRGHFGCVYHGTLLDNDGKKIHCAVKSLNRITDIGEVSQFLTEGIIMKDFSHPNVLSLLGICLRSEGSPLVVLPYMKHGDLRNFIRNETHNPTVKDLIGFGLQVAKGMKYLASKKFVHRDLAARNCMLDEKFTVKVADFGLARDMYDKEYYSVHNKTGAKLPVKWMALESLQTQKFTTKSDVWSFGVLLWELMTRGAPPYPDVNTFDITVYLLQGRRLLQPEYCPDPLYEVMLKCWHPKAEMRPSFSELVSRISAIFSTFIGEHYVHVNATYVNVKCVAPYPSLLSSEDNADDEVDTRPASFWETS
As to the kind of experiment: c-Met cell-based assay (phospho-c-Met ELISA, A549 cells). To be noted: compound at 100 nM. As to the method: A procedure for standard cell-based assay for c-Met kinase activity can be used to test compounds of this invention for their inhibitory effect on this kinase and to identify c-Met antagonists.
Specifically, a compound to be tested was first dissolved in DMSO to a concentration of 10 mM and stored at −20° C. The activity of c-Met in cells depends on the phosphorylation level at its intracellular domain induced by its ligand, Hepatocyte growth factor (HGF). In order to induce the cells to produce phosphate c-Met, paracrine HGF-dependent NSCLC (None Small Cell Lung Cancer) A549 cells were grown in DMEM with 10% FBS.
To screen compounds of this invention for their inhibitory effect on c-Met kinase, the ELISA kit (R&D Systems) was used. One day before screening procedure, A549 cells were grown in DMEM without the presence of serum. On the day of screening procedure, various concentrations of compounds (from 0.5 nM to 500 nM) were added into the culture medium. Two hours later, 20% of FBS (Fetal Bovine Serum) was added into the medium to stimulate the expression of phosphor-c-Met. After 20 minutes, cell lysate from approximately 5×10^5 A549 cells were reacted with anti-phosphor-c-Met or anti total c-Met antibody in 96 well plates. In the presence of detection antibody, the phosphor-c-Met or total c-Met can be detected with Streptavidin-HRP (R&D Systems) followed by chemiluminescence detection.

Structures can show the parent of a compound that is named as a salt.

T1 sequence (P09619 33-1106, species assumed): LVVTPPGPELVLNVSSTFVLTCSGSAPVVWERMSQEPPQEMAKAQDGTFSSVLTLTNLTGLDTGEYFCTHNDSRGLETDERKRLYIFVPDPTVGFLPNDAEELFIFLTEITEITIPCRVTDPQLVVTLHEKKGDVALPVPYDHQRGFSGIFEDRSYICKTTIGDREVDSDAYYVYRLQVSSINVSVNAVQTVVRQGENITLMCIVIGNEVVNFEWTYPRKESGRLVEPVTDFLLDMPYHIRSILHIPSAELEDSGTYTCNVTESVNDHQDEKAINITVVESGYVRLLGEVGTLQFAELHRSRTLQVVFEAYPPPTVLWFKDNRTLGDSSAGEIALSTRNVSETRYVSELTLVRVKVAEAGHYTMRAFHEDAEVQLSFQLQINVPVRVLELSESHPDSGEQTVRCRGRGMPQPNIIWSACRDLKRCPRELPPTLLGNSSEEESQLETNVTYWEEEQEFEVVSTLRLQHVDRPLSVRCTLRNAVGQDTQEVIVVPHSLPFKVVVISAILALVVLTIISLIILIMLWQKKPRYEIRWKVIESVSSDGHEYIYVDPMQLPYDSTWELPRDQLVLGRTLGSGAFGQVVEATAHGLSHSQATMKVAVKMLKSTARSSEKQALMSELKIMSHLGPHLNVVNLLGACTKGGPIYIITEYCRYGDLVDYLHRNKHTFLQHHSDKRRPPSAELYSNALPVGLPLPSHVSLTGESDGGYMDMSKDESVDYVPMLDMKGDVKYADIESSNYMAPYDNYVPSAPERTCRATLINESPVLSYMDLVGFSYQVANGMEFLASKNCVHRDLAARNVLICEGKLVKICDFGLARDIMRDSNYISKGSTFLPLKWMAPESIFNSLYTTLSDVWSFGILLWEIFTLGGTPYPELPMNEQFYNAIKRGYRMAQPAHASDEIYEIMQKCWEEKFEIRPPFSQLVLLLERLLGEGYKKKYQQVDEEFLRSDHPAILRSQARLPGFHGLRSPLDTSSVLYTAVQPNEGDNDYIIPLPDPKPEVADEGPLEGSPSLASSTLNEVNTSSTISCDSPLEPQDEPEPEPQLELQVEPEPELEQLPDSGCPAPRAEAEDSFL

Regarding `Cl.O=C(Nc1ccccc1)Nc1cccc2c1ccn2Cc1c[nH]c2ncccc12` [Example 4, 1-Phenyl-3-[1-(1H-pyrrolo[2,3-b]pyridin-3-ylmethyl)-1H-indol-4-yl]urea hydrochloride], the remaining activity at 0.1 µM on PDGFRβ and at VEGFR2 was at least 70% throughout. Further, at c-Met, the “% c-Met kinase activity remains” value was “B (the percentage is greater or equal to 70%)”.

As to `O=C(Nc1ccc(Cl)cc1)Nc1cccc2c1ccn2Cc1c[nH]c2ncccc12` [Example 10, 1-(4-Chlorophenyl)-3-[1-(1H-pyrrolo[2,3-b]pyridin-3-ylmethyl)-1H-indol-4-yl]urea hydrochloride], the remaining activity at 0.1 µM at PDGFRβ and on VEGFR2 was at least 70% throughout. Also, at c-Met, the “% c-Met kinase activity remains” value was “B (the percentage is greater or equal to 70%)”.

Consider `Cl.O=C(Nc1cccc(Br)c1)Nc1cccc2c1ccn2Cc1c[nH]c2ncccc12` [Example 12, 1-(3-Bromophenyl)-3-[1-(1H-pyrrolo[2,3-b]pyridin-3-ylmethyl)-1H-indol-4-yl]urea hydrochloride], for which the remaining activity at 0.1 µM at PDGFRβ is at least 70%; at VEGFR2, below 70%. Besides, the “% c-Met kinase activity remains” value on c-Met was “A (the percentage of kinase activity remains is below 70%)”.

With `Cl.O=C(Nc1ccc(Br)cc1)Nc1cccc2c1ccn2Cc1c[nH]c2ncccc12` [Example 13, 1-(4-Bromophenyl)-3-[1-(1H-pyrrolo[2,3-b]pyridin-3-ylmethyl)-1H-indol-4-yl]urea hydrochloride], the remaining activity at 0.1 µM at PDGFRβ and on VEGFR2 was at least 70% each time. Also, on c-Met, the “% c-Met kinase activity remains” value was “A (the percentage of kinase activity remains is below 70%)”.

As to `Cl.O=C(Nc1cccc(OC(F)(F)F)c1)Nc1cccc2c1ccn2Cc1c[nH]c2ncccc12` [Example 21, 1-(3-Trifluoromethoxyphenyl)-3-[1-(1H-pyrrolo[2,3-b]pyridin-3-ylmethyl)-1H-indol-4-yl]urea hydrochloride], the remaining activity at 0.1 µM on PDGFRβ and on VEGFR2 was at least 70% in each case. Further, the “% c-Met kinase activity remains” value at c-Met is given as “B (the percentage is greater or equal to 70%)”.

On to `Cl.O=C(Nc1ccc(OC(F)(F)F)cc1)Nc1cccc2c1ccn2Cc1c[nH]c2ncccc12` [Example 22, 1-(4-Trifluoromethoxyphenyl)-3-[1-(1H-pyrrolo[2,3-b]pyridin-3-ylmethyl)-1H-indol-4-yl]urea hydrochloride], for which the remaining activity at 0.1 µM at PDGFRβ and on VEGFR2 was at least 70% each time. In addition, the “% c-Met kinase activity remains” value at c-Met is “A (the percentage of kinase activity remains is below 70%)”.

As to `COc1ccc(F)c(NC(=O)Nc2cccc3c2ccn3Cc2c[nH]c3ncccc23)c1` [Example 31, 1-(2-Fluoro-5-methoxyphenyl)-3-[1-(1H-pyrrolo[2,3-b]pyridin-3-ylmethyl)-1H-indol-4-yl]urea hydrochloride], the remaining activity at 0.1 µM on PDGFRβ was at least 70%.

For `O=C(Nc1ccc(Cl)cc1)Nc1cccc2c1ccn2Cc1ccnc2[nH]ccc12` [Example 39, 1-(4-Chlorophenyl)-3-[1-(1H-pyrrolo[2,3-b]pyridin-4-ylmethyl)-1H-indol-4-yl]urea hydrochloride], the remaining activity at 0.1 µM on VEGFR2 was below 70%. In addition, the “% c-Met kinase activity remains” value at c-Met is “A (the percentage of kinase activity remains is below 70%)”.

Consider `Cl.O=C(Nc1ccccc1Br)Nc1cccc2c1ccn2Cc1ccnc2[nH]ccc12` [Example 40, 1-(2-Bromophenyl)-3-[1-(1H-pyrrolo[2,3-b]pyridin-4-ylmethyl)-1H-indol-4-yl]urea hydrochloride], for which, on VEGFR2, the remaining activity at 0.1 µM was below 70%. The “% c-Met kinase activity remains” value on c-Met was “A (the percentage of kinase activity remains is below 70%)”.

As for `Cl.O=C(Nc1cccc(Br)c1)Nc1cccc2c1ccn2Cc1ccnc2[nH]ccc12` [Example 41, 1-(3-Bromophenyl)-3-[1-(1H-pyrrolo[2,3-b]pyridin-4-ylmethyl)-1H-indol-4-yl]urea hydrochloride], the remaining activity at 0.1 µM on VEGFR2 was at least 70%. The “% c-Met kinase activity remains” value on c-Met is given as “B (the percentage is greater or equal to 70%)”.

Consider `Cl.O=C(Nc1ccc(Br)cc1)Nc1cccc2c1ccn2Cc1ccnc2[nH]ccc12` [Example 42, 1-(4-Bromophenyl)-3-[1-(1H-pyrrolo[2,3-b]pyridin-4-ylmethyl)-1H-indol-4-yl]urea hydrochloride], for which the remaining activity at 0.1 µM at VEGFR2 is below 70%. In addition, the “% c-Met kinase activity remains” value at c-Met is “B (the percentage is greater or equal to 70%)”.

As to `Cc1ccc(NC(=O)Nc2cccc3c2ccn3Cc2ccnc3[nH]ccc23)cc1.Cl` [Example 45, 1-(4-Methylphenyl)-3-[1-(1H-pyrrolo[2,3-b]pyridin-4-ylmethyl)-1H-indol-4-yl]urea hydrochloride], on VEGFR2, the remaining activity at 0.1 µM was below 70%. In addition, on c-Met, the “% c-Met kinase activity remains” value is listed as “A (the percentage of kinase activity remains is below 70%)”.

`COc1ccccc1NC(=O)Nc1cccc2c1ccn2Cc1ccnc2[nH]ccc12.Cl` [Example 46, 1-(2-Methoxyphenyl)-3-[1-(1H-pyrrolo[2,3-b]pyridin-4-ylmethyl)-1H-indol-4-yl]urea hydrochloride]: the remaining activity at 0.1 µM on VEGFR2 is at least 70%. Also, at c-Met, the “% c-Met kinase activity remains” value is on record as “B (the percentage is greater or equal to 70%)”.

In the case of `O=C(Nc1ccccc1C(F)(F)F)Nc1cccc2c1ccn2Cc1ccnc2[nH]ccc12` [Example 50, 1-(2-Trifluoromethylphenyl)-3-[1-(1H-pyrrolo[2,3-b]pyridin-4-ylmethyl)-1H-indol-4-yl]urea hydrochloride], on PDGFRβ, the remaining activity at 0.1 µM is at least 70%.

With `N#Cc1cccc(NC(=O)Nc2cccc3c2ccn3Cc2ccnc3[nH]ccc23)c1` [Example 53, 1-(3-Cyanophenyl)-3-[1-(1H-pyrrolo[2,3-b]pyridin-4-ylmethyl)-1H-indol-4-yl]urea hydrochloride], at PDGFRβ, the remaining activity at 0.1 µM is at least 70%.

For the molecule `Cl.O=C(Nc1cc(Br)ccc1F)Nc1cccc2c1ccn2Cc1ccnc2[nH]ccc12` [Example 57, 1-(2-Fluoro-5-bromophenyl)-3-[1-(1H-pyrrolo[2,3-b]pyridin-4-ylmethyl)-1H-indol-4-yl]urea hydrochloride], the remaining activity at 0.1 µM at VEGFR2 is below 70%. Moreover, on c-Met, the “% c-Met kinase activity remains” value is listed as “A (the percentage of kinase activity remains is below 70%)”.

`Cc1ccc(Br)c(NC(=O)Nc2cccc3c2ccn3Cc2ccnc3[nH]ccc23)c1.Cl` [Example 58, 1-(2-Bromo-5-methylphenyl)-3-[1-(1H-pyrrolo[2,3-b]pyridin-4-ylmethyl)-1H-indol-4-yl]urea hydrochloride]: the remaining activity at 0.1 µM at VEGFR2 is below 70%. The “% c-Met kinase activity remains” value on c-Met is reported as “A (the percentage of kinase activity remains is below 70%)”.

For `Cc1c(F)cccc1NC(=O)Nc1cccc2c1ccn2Cc1ccnc2[nH]ccc12.Cl` [Example 59, 1-(2-Methyl-3-fluorophenyl)-3-[1-(1H-pyrrolo[2,3-b]pyridin-4-ylmethyl)-1H-indol-4-yl]urea hydrochloride], the remaining activity at 0.1 µM on VEGFR2 is below 70%. Also, the “% c-Met kinase activity remains” value on c-Met is listed as “A (the percentage of kinase activity remains is below 70%)”.
